Reference: patent US7273848B2, “Apolipoprotein A-I agonists and their use to treat dyslipidemic disorders” (priority 1997, dated 2007)
Non-standard residues stand in square brackets, D forms with d. Residues, ends and D or L forms follow the SMILES beside them. No end group written: not given here. 1Nal = N[C@@H](Cc1cccc2ccccc12)C(=O)O; Aib = CC(C)(N)C(=O)O

Assays:
[1] = target: T1, LCAT (purified from human plasma) (Homo sapiens, UniProt P04180); experiment: LCAT activation assay; type: biochemical; details: LCAT activation as compared with native human ApoA-I (= 100%), equivalent masses
T1 construct: from tissue; host or cells: human plasma
T1 sequence (P04180 25-440): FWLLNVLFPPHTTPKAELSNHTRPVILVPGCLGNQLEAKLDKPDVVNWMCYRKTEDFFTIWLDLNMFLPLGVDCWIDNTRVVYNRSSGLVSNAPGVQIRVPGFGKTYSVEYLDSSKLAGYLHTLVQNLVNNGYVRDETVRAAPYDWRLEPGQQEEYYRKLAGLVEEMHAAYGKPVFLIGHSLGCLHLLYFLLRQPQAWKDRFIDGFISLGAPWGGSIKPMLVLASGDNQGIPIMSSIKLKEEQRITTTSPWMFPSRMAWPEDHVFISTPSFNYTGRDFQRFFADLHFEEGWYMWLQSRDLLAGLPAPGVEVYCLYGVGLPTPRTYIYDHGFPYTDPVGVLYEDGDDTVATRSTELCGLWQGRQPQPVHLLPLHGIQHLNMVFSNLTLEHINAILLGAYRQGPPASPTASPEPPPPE
Method in brief: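 Substrate SUVs of EPC or POPC with 14C-cholesterol (20:1 molar ratio), in 10 mM Tris, 0.14 M NaCl, 1 mM EDTA, pH 7.4, were preincubated with peptide or equal mass of plasma ApoA-I. Reaction started with human plasma LCAT; activation was measured as cholesterol-to-ester conversion relative to ApoA-I (100%).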

[2] = Circular dichroism helicity determination; type: physicochemical; details: percent helicity; for He (%) TFE: 5 μM peptide, 90% vol TFE; for He (%) TFE / He (%) SUVs: 37° C.; for He (%) free: unbound peptide 5 μM in 5 mM phosphate buffer, pH 7.4, 37° C.; for He (%) SUVs: peptide-SUV complexes (20:1 EPC:Chol., Ri=30 and Ri=50); for He (%) mics: peptide-micelle complexes, Ri=100, 37° C.
Method in brief: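 Far-UV CD (190–260 nm) at 37° C on 5 μM peptide in 5 mM phosphate pH 7.4, free, with EPC:Chol 20:1 SUVs (Ri 30 or 50), lysophosphatidylcholine micelles (Ri 100) or 90% TFE. Spectra converted to molar ellipticity per residue; helicity from 222 nm ellipticity or CONTIN fitting to reference spectra, ±5%.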

Row | Compound | ACTIVITY (%) LCAT [1] [%] | He (%) TFE [2] [%] | He (%) free [2] [%] | He (%) SUVs [2] [%] | He (%) mics [2] [%]
1 | CC(C)C[C@H](NC(=O)[C@H](C)NC(=O)[C@H](CCC(=O)O)NC(=O)[C@H](CC(C)C)NC(=O)C(C)(C)NC(=O)[C@H](CCC(=O)O)NC(=O)[C@H](CC(N)=O)NC(=O)[C@H](CC(C)C)NC(=O)[C@H](CC(C)C)NC(=O)[C@H](CCC(=O)O)NC(=O)[C@H](Cc1c[nH]c2ccccc12)NC(=O)[C@H](Cc1ccccc1)NC(=O)[C@H](CC(C)C)NC(=O)[C@H](CC(=O)O)NC(=O)[C@H](CC(C)C)NC(=O)[C@@H](NC(=O)[C@@H]1CCCN1)C(C)C)C(=O)N[C@@H](CCCCN)C(=O)N[C@@H](CCC(N)=O)C(=O)N[C@@H](CCCCN)C(=O)N[C@@H](CC(C)C)C(=O)N[C@@H](CCCCN)C(=O)O [compound 51, PVLDLFWELLNEXLEALKQKLK] (H-PVLDLFWELLNE[Aib]LEALKQKLK-OH) | 20 | 73 | 63 | 81 | 82
2 | PVLDLFRNLLEKLLEALEQKLK [compound 49] | 22 | 57 | 57 | 52 | 65
3 | PLLELLKELLQELLEALKQKLK [compound 36] | 31 | 95 | 95 |  | 100
4 | CC(C)C[C@H](NC(=O)[C@H](C)NC(=O)[C@H](CCC(=O)O)NC(=O)[C@H](CC(C)C)NC(=O)C(C)(C)NC(=O)[C@H](CCC(=O)O)NC(=O)[C@H](CC(N)=O)NC(=O)[C@H](CC(C)C)NC(=O)[C@H](CCCCN)NC(=O)[C@H](CCC(=O)O)NC(=O)[C@H](CCCNC(=N)N)NC(=O)[C@H](Cc1c[nH]c2ccccc12)NC(=O)[C@H](CCC(=O)O)NC(=O)[C@H](CC(=O)O)NC(=O)[C@H](CC(C)C)NC(=O)[C@@H](NC(=O)[C@@H]1CCCN1)C(C)C)C(=O)N[C@@H](CCCCN)C(=O)N[C@@H](CCC(N)=O)C(=O)N[C@@H](CCCCN)C(=O)N[C@@H](CC(C)C)C(=O)N[C@@H](CCCCN)C(=O)O [compound 62, PVLDEWREKLNEXLEALKQKLK] (H-PVLDEWREKLNE[Aib]LEALKQKLK-OH) | 16 |  | 15 | 43 | 85
5 | PVLDLFRELLELLKQKLK [compound 217] | 30 | 70 | 52 | 76 | 78
6 | PVLDLFRELLNEWLEALKQKLK [compound 54] | 19 | 78 | 76 | 84 | 71
7 | PVLDLFRNLLEELLEALQKKLK [compound 66] | 15 | 70 | 64 | 66 | 82
8 | CC(C)C[C@H](NC(=O)[C@H](C)NC(=O)[C@H](CCC(=O)O)NC(=O)[C@H](Cc1cccc2ccccc12)NC(=O)[C@H](CC(C)C)NC(=O)[C@H](CCC(=O)O)NC(=O)[C@H](CC(N)=O)NC(=O)[C@H](CC(C)C)NC(=O)[C@H](CC(C)C)NC(=O)[C@H](CCC(=O)O)NC(=O)[C@H](CCCNC(=N)N)NC(=O)[C@H](Cc1ccccc1)NC(=O)[C@H](CC(C)C)NC(=O)[C@H](CC(=O)O)NC(=O)[C@H](CC(C)C)NC(=O)[C@@H](NC(=O)[C@@H]1CCCN1)C(C)C)C(=O)N[C@@H](CCCCN)C(=O)N[C@@H](CCC(N)=O)C(=O)N[C@@H](CCCCN)C(=O)N[C@@H](CC(C)C)C(=O)N[C@@H](CCCCN)C(=O)O [compound 27, PVLDLFRELLNELZEALKQKLK] (H-PVLDLFRELLNEL[1Nal]EALKQKLK-OH) | 44 | 81 | 72 | 82 | 92
9 | CC(C)C[C@H](NC(=O)[C@H](C)NC(=O)[C@H](CCC(=O)O)NC(=O)[C@H](CC(C)C)NC(=O)[C@H](CC(C)C)NC(=O)[C@H](CCC(=O)O)NC(=O)[C@H](CC(N)=O)NC(=O)[C@H](CC(C)C)NC(=O)[C@H](CC(C)C)NC(=O)[C@H](CCC(=O)O)NC(=O)[C@H](CCCNC(=N)N)NC(=O)[C@H](Cc1ccccc1)NC(=O)[C@H](CC(C)C)NC(=O)[C@H](CC(=O)O)NC(=O)[C@H](CC(C)C)NC(=O)[C@@H](NC(=O)[C@@H]1CCCN1)C(C)C)C(=O)N[C@@H](CCCN)C(=O)N[C@@H](CCC(N)=O)C(=O)N[C@@H](CCCN)C(=O)N[C@@H](CC(C)C)C(=O)N[C@@H](CCCN)C(=O)O [peptide 14, PVLDLFRELLNELLEALOQOLO] | 61 |  | 70 | 80 | 96
10 | Ac-PLLDLFRELLEELKQKLK-NH2 [compound 197] | 81 | 69 | 43 |  | 70
11 | CC(C)C[C@@H](NC(=O)[C@@H](C)NC(=O)[C@@H](CCC(=O)O)NC(=O)[C@@H](CC(C)C)NC(=O)C(C)(C)NC(=O)[C@@H](CCC(=O)O)NC(=O)[C@@H](CC(N)=O)NC(=O)[C@@H](CC(C)C)NC(=O)[C@@H](CCCCN)NC(=O)[C@@H](CCC(=O)O)NC(=O)[C@@H](CCCNC(=N)N)NC(=O)[C@@H](Cc1ccccc1)NC(=O)[C@@H](CCC(=O)O)NC(=O)[C@@H](CC(=O)O)NC(=O)[C@@H](CC(C)C)NC(=O)[C@H](NC(=O)[C@H]1CCCN1)C(C)C)C(=O)N[C@H](CCCCN)C(=O)N[C@H](CCC(N)=O)C(=O)N[C@H](CCCCN)C(=O)N[C@H](CC(C)C)C(=O)N[C@H](CCCCN)C(=O)O [compound 44, pvldefreklneXlealkqklk] (H-[dP][dV][dL][dD][dE][dF][dR][dE][dK][dL][dN][dE][Aib][dL][dE][dA][dL][dK][dQ][dK][dL][dK]-OH) | 25 |  | 20 |  | 86
12 | PVLDLFRELLNELLEWLKQKLK [compound 3] | 98 | 95 | 70 | 80 | 95
13 | CC(C)C[C@H](NC(=O)[C@H](C)NC(=O)[C@H](CCC(=O)O)NC(=O)[C@H](CC(C)C)NC(=O)C(C)(C)NC(=O)[C@H](CCC(=O)O)NC(=O)[C@H](Cc1ccc(O)cc1)NC(=O)[C@H](CC(C)C)NC(=O)[C@H](CC(C)C)NC(=O)[C@H](CCC(=O)O)NC(=O)[C@H](CCCNC(=N)N)NC(=O)[C@H](Cc1ccccc1)NC(=O)[C@H](CCC(=O)O)NC(=O)[C@H](CC(=O)O)NC(=O)[C@H](CC(C)C)NC(=O)[C@@H](NC(=O)[C@@H]1CCCN1)C(C)C)C(=O)N[C@@H](CCCCN)C(=O)N[C@@H](CCC(N)=O)C(=O)N[C@@H](CCCCN)C(=O)N[C@@H](CC(C)C)C(=O)N[C@@H](CCCCN)C(=O)O [compound 70, PVLDEFRELLYEXLEALKQKLK] (H-PVLDEFRELLYE[Aib]LEALKQKLK-OH) | 12 | 66 | 27 | 33 | 78
14 | VLDLFRELLNELLEALKQKLK [compound 67] | 14 | 94 | 81 | 84 | 90
15 | CC(C)C[C@H](NC(=O)[C@H](C)NC(=O)[C@H](CCC(=O)O)NC(=O)[C@H](CC(C)C)NC(=O)C(C)(C)NC(=O)[C@H](CCC(=O)O)NC(=O)[C@H](CC(N)=O)NC(=O)[C@H](CC(C)C)NC(=O)[C@H](CC(C)C)NC(=O)[C@H](CCC(=O)O)NC(=O)[C@H](CC(C)C)NC(=O)[C@H](Cc1ccccc1)NC(=O)[C@H](CC(C)C)NC(=O)[C@H](CC(=O)O)NC(=O)[C@H](CC(C)C)NC(=O)[C@@H](NC(=O)[C@@H]1CCCN1)C(C)C)C(=O)N[C@@H](CCCCN)C(=O)N[C@@H](CCC(N)=O)C(=O)N[C@@H](CCCCN)C(=O)N[C@@H](CC(C)C)C(=O)N[C@@H](CCCCN)C(=O)O [compound 31, PVLDLFLELLNEXLEALKQKLK] (H-PVLDLFLELLNE[Aib]LEALKQKLK-OH) | 34 | 90 | 49 |  | 98
